# Test results taken from patent publication US9624280B2 (JANSSEN BIOTECH, INC., priority 2013, dated 2017).
# Entries after “also recorded” stand apart in the source; their conditions may differ. Read-outs that look alike come from different tables or passages of the source. No end group written: not given here.
# Legend:
# C57Bl/6 mice [1] = experiment: CFA model, tactile allodynia (Von Frey test); format: in vivo
# Description: (§1) Male C57Bl/6 mice (24-26 g), ordered from Charles River and housed individually, were used for this study.
# 7 graded stimuli (von Frey filaments: 0.03, 0.07, 0.16, 0.4, 0.6, 1, 2 g; Stoelting, Wood Dale, Ill.) were used. Von Frey hairs were presented perpendicularly against the center plantar area (between toris) on a hindpaw. Sufficient force was applied to bend the filament slightly and held for 3 seconds. Per the Chaplan paper, a positive response can be either 1) a sharp withdrawal or 2) immediate flinching upon removal of the filament. See Chaplan et al for more details. Mice were acclimated to the wire mesh in the testing chamber for 30-60 minutes prior to testing.
# (§2) Percent maximum possible effect (MPE %)=(T1−T0)/(Tc−T0)×100%. T0: threshold on day0 (post-CFA, pre-pump); T1: threshold on day1 post pump implantation; Tc: cut-off of the test (20 s for the Hargreaves test and 2 g for the Von Frey test)
# (§3) Animals were anesthetized with isoflurane (4% induction and 2% maintenance) and 20 μL of 100% Complete Freund's Adjuvant (CFA; Sigma-Aldrich; Saint Louis, Mo.) was injected into the center plantar area on one hind paw using a 27 gauge needle attached to a 50 μL Hamilton syringe. Carrageenan model: Animals were anesthetized with isoflurane (4% induction and 2% maintenance) and 25 μL of 2% A-carrageenan (Sigma-Aldrich; Saint Louis, Mo.) dissolved in normal saline was injected into the center plantar area on hind paws using an insulin syringe (BD; Franklin Lakes, N.J.).
# Alzet micro-osmotic mini pumps (Durect Corporation Model 1003D and 2001D) were filled and primed per manufacturer's guide. Mice were anesthetized with isoflurane (5% induction; 2% maintenance). Their backs were shaved, wiped down with isopropyl alcohol and povidone iodine, and a small incision was made between the scapulae. Using a pair of forceps or hemostat, a small pocket was formed by spreading the subcutaneous connective tissues apart. […]
# Data are represented as mean±s.e.m. […] Hotplate and MPE % data were analyzed by one-way ANOVA followed by Bonferroni's multiple comparison test.
# human Nav1.6 = molecular target: T1, human Nav1.6 (Homo sapiens, UniProt Q9UQD0); format: cell-based
# T1 construct: expressed in transfected cells
# T1 sequence (Q9UQD0 whole entry): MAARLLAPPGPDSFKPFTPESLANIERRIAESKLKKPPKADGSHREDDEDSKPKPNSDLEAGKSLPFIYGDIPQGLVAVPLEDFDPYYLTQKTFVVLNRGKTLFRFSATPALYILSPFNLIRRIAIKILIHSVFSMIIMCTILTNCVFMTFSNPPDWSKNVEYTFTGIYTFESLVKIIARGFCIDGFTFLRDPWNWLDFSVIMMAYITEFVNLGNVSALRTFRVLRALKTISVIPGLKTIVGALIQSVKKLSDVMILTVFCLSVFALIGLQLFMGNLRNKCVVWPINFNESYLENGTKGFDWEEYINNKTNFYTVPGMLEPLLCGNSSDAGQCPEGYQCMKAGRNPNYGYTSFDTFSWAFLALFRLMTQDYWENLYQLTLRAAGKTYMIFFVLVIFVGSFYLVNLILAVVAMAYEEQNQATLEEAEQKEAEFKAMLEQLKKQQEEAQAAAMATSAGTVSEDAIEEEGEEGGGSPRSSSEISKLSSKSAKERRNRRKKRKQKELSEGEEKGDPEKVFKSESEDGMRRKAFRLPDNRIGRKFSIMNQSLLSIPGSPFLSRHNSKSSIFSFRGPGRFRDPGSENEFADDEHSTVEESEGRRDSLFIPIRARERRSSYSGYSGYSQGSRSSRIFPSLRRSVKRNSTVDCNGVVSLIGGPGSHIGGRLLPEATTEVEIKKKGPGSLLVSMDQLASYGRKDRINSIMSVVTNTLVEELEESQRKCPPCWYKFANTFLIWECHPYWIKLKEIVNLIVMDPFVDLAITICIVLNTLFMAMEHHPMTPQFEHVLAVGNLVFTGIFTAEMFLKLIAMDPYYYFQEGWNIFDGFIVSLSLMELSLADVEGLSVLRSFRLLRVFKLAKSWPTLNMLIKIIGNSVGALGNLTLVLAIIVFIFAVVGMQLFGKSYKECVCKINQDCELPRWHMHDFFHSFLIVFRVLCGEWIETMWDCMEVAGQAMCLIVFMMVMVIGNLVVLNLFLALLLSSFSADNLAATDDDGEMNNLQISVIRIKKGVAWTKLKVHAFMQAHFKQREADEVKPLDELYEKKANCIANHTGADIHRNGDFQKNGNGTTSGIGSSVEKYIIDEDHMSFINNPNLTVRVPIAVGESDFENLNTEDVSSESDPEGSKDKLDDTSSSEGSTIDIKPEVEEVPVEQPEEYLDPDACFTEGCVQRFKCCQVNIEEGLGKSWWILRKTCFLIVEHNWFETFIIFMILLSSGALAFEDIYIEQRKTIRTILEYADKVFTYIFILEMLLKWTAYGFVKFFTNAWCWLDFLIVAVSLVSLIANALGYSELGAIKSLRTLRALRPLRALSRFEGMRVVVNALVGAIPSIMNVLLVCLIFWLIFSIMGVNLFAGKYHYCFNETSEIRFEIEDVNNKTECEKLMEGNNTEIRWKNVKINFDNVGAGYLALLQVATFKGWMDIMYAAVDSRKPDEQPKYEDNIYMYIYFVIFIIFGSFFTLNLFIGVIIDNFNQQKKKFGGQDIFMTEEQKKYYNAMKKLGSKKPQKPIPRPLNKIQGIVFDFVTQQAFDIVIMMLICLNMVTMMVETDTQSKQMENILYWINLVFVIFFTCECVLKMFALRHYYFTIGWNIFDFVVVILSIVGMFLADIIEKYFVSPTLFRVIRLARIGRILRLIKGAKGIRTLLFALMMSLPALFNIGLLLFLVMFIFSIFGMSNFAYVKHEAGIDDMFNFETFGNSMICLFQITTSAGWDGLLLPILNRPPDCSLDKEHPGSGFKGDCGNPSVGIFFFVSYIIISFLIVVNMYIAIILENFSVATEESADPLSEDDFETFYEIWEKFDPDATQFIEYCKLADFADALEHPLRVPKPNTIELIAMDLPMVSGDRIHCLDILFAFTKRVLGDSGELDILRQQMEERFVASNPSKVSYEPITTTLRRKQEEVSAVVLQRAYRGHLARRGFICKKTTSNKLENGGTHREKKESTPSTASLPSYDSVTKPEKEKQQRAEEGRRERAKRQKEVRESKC
# C57Bl/6 mice [2] = experiment: CFA model of inflammatory pain, thermal hyperalgesia (Hargreaves test); format: in vivo; settings: for Thermal MPE %: CFA model, mice, mean±s.e.m. (n)
# Protocol: as §1
# This box consists of a chamber with a raised glass floor maintained at a constant temperature (27° C.). The thermal nociceptive stimulus originates from a projection bulb light beam below the glass surface. The light beam is aimed at the area between toris (center plantar). The “start” button will turn on the light and start the timer. Movements (such as a sudden withdrawal) of the stimulated paw will trigger the switch to turn off the light and stop the timer. […] If no movement occurs, the bulb will be turned off after 20 seconds (cutoff) to prevent tissue injury. The animals were allowed to habituate on the glass surface for 30-60 minutes before PWL measurement.
# as §2, §3
# (§4) Alzet micro-osmotic mini pumps (Durect Corporation Model 1003D and 2001D) were filled and primed per manufacturer's guide. Mice were anesthetized with isoflurane (5% induction; 2% maintenance). Their backs were shaved, wiped down with isopropyl alcohol and povidone iodine, and a small incision was made between the scapulae. Using a pair of forceps or hemostat, a small pocket was formed by spreading the subcutaneous connective tissues apart. The pump was inserted into the pocket with the flow moderator pointing away from the incision. The skin incision was then closed using 7 mm staples and the animals were allowed to recover in their home cages.
# (§5) Data are represented as mean±s.e.m. Prism (Graphpad Software Inc., La Jolla, Calif.) was used for graphing and statistical analysis. For comparison of threshold values over time, a two-way ANOVA followed by Bonferroni's multiple comparison test was used with a significance level of p<0.05. Hotplate and MPE % data were analyzed by one-way ANOVA followed by Bonferroni's multiple comparison test.
# C57Bl/6 mice [3] = experiment: Hotplate test; format: in vivo
# Protocol: as §1
# Animals were placed on a 10″×10″ metal plate surrounded by 4 Plexiglas walls (15 inches high). The plate was maintained at a temperature of either 50 or 55° C. The response latency (time when the animal first flinches or licks its hind paw, jumps, or vocalizes) was measured and the animal removed from the plate. Animals showing no response were removed from the plate after 40 s (50° C.) or 20 s (55° C.) to prevent any possible tissue damage. This trial was repeated 2-5 times every 15-60 minutes in a day.
# as §4, §5
# C57Bl/6 mice [4] = settings: mouse, in vivo
# human Nav1.5 = human Nav1.5 (Homo sapiens, UniProt Q14524)
# Sequence of human Nav1.5 (Q14524 whole entry): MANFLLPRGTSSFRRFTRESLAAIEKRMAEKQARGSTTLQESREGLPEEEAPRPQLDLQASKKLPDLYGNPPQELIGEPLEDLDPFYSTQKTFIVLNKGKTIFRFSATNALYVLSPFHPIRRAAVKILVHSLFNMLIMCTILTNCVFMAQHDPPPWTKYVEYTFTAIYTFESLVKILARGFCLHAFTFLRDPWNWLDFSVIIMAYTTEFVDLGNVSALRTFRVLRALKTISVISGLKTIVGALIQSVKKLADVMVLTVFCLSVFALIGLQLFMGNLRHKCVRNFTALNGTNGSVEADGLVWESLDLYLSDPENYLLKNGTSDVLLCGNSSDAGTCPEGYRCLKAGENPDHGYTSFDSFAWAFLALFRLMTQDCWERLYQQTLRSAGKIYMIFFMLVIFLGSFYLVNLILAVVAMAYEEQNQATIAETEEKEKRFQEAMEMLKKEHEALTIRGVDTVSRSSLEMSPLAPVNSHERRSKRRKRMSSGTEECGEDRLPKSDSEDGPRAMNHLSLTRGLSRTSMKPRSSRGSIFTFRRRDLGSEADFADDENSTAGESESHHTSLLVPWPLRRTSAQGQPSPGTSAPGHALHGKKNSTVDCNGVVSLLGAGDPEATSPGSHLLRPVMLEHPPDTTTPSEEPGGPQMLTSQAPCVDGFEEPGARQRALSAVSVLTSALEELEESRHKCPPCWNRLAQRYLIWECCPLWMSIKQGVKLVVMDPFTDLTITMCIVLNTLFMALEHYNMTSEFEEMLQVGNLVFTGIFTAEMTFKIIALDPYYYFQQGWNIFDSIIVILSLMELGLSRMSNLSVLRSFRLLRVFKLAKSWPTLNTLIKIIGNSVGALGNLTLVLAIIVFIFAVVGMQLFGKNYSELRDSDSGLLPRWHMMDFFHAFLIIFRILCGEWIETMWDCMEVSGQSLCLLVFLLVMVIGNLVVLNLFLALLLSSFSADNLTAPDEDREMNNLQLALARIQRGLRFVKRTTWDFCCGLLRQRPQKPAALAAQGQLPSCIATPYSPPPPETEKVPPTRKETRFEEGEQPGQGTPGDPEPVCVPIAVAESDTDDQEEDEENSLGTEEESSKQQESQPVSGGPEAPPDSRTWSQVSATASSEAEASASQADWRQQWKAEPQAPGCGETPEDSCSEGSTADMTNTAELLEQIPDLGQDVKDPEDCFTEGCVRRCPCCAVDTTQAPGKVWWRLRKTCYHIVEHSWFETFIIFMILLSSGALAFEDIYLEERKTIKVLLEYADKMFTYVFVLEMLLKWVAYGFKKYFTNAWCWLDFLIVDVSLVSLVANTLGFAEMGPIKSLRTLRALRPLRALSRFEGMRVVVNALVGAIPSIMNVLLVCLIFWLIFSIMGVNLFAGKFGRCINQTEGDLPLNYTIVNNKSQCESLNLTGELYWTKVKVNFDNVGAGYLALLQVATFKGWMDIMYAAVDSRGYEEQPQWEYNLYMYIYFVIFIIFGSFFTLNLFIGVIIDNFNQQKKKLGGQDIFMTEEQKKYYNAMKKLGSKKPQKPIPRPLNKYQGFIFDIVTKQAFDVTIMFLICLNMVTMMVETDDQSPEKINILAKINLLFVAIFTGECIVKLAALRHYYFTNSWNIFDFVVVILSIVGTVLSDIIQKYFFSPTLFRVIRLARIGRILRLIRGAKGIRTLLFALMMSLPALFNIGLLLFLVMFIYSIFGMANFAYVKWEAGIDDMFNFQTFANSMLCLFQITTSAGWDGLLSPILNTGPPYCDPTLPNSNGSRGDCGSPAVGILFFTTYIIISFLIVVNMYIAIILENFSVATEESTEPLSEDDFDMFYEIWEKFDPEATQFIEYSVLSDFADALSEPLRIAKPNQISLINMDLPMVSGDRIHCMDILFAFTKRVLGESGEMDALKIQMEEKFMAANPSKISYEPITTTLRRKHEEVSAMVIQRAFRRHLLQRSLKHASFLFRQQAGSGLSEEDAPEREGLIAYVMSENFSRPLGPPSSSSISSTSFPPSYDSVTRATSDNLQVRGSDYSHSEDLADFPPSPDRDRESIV
# isolated nerves = settings: unless the perineural barrier is compromised; Hackel et al. 2012; cited from earlier work
# rodent = settings: Schmalhofer et al. 2008; cited from earlier work
substance,measurement,setting,value
GPQCQKWMQTCDAERKCCEGFVCRLWCKKKLW-OH (cysteine pairing not given here) [NV1D2775],CFA-induced tactile allodynia,C57Bl/6 mice [1]; 1824 μg/day,reversed
same,"time at which effect reached the maximum, tactile test","C57Bl/6 mice [1]; mouse, in vivo",8 h
same,time by which tactile threshold returned to control level post pump implantation,"C57Bl/6 mice [1]; mouse, in vivo",≤ 48 h
same,selectivity for Nav1.7 compared to recombinant Protoxin-II,human Nav1.6,improved selectivity
same,thermal latencies after peptide administration,"C57Bl/6 mice [2]; 1824 μg/day, cut-off 20 s",close to the cut-off
same,Thermal MPE %,C57Bl/6 mice [2]; 228 μg/day/mouse by subcutaneous osmotic mini-pump,35 ± 8 (8) %
same,Thermal MPE %,C57Bl/6 mice [2]; 1824 μg/day/mouse by subcutaneous osmotic mini-pump,85 ± 6 %
same,efficacy in the CFA model,"C57Bl/6 mice [2]; mouse, in vivo",strong efficacy
same,"time at which anti-hyperalgesic effect was first seen, post-pump implantation","C57Bl/6 mice [2]; mouse, in vivo",4 h
same,"time at which effect reached the maximum, thermal test","C57Bl/6 mice [2]; mouse, in vivo",8 h
same,time by which thermal latency returned to control level post pump implantation,"C57Bl/6 mice [2]; mouse, in vivo",≤ 48 h
same,hotplate thermal latency compared to the PBS control,C57Bl/6 mice [3]; 228 μg/day,modest yet significant increase
same,hotplate latencies at 50 and 55° C.,C57Bl/6 mice [3]; 1824 μg/day,near cut-off
same,efficacy in the hotplate test,"C57Bl/6 mice [3]; mouse, in vivo, listed as NV1D2775-OH","strong, dose-dependent efficacy; also recorded: significant analgesia"
same,"analgesia, thermal withdrawal latency on day1 post-pump",C57Bl/6 mice [4],significant analgesia
same,protection from carrageenan-induced thermal hyperalgesia,C57Bl/6 mice [4],fully protected
"GPYCQKWMWTCDSERKCCEGMVCRLWCKKKLW-COOH [NV1D12, reference compound]",IC50,"human Nav1.6; read-out: IC50 for Nav1.6, QPatch electrophysiology assay",~62 nM
same,IC50,human Nav1.5,> 1000 nM
YCQKWMWTCDSERKCCEGMVCRLWCKKKLW-COOH [wild type Protoxin-II],inhibition of action potential firing in isolated nerves,isolated nerves,inability
same,efficacy in rodent models of acute and inflammatory pain,rodent,non-efficacious
GPSCQKWMQTCDAERKCCEGFVCRLWCKKKLW-OH (cysteine pairing not given here) [NV1D2773],IC50,"human Nav1.5; human, pH 7.4",> 3000 nM
